# Measured values: patent US6150385A, “1,3,4-thiadiazoles useful for the treatment of CMV infections” (Pharmacia & Upjohn Company, priority 1999, dated 2000)
# Molecular target: T1, HCMV polymerase (Human cytomegalovirus, UniProt P08546)
# T1 construct: made in house; host or cells: SF-9 insect cells infected with recombinant baculovirus
# Experiment: HCMV polymerase assay (scintillation proximity assay)
# Assay type: biochemical
# Conditions: percentage of inhibition at 25 μM concentration in CMV polymerase assay
# Method: The compounds of the present invention are tested in an polymerase assay to show activity described below, which is indicative of a compound's activity and thus of its use as an anti-viral agent.
# The HCMV polymerase assay is performed using a scintillation proximity assay (SPA) as described in several references, such as N. D. Cook, et al., Pharmaceutical Manufacturing International, pages 49-53 (1992); K. Takeuchi, Laboratory Practice, September issue (1992); U.S. Pat. No. 4,568,649 (1986); which are incorporated by reference herein. Reactions are performed in 96-well plates. The assay is conducted in 100 μl volume with 5.4 mM HEPES (pH 7.5), 11.7 mM KCl, 4.5 mM MgCl2, 0.36 mg/ml BSA, and 90 nM ^3 H-dTTP. Assays are run with and without CHAPS, (3-[(3-Cholamidopropyl)-dimethylammonio]-1-propanesulfonate) at a final concentration of 2 mM. HCMV is diluted in enzyme dilution buffer containing 50% glycerol, 250 mM NaCl, 10 mM HEPES (pH 7.5), 100 μg/ml BSA, and 0.01% sodium azide. The HCMV polymerase, which is expressed in recombinant baculovirus-infected SF-9 cells and purified according to literature procedures, is added at 10% (or 10 μl) of the final reaction volume, i.e., 100 μl. Compounds are diluted in 50% DMSO and 10 μl are added to each well. Control wells contain an equivalent concentration of DMSO. Unless noted otherwise, reactions are initiated via the addition of 6 nM biotinylated poly(dA)-oligo(dT) template/primer to reaction mixtures containing the enzyme, substrate, and compounds of interest. Plates are incubated in a 25° C. or 37° C. H2 O bath and terminated via the addition of 40 μl/reaction of 0.5 M EDTA (pH 8) per well. Reactions are terminated within the time-frame during which substrate incorporation is linear and varied depending upon the enzyme and conditions used, i.e., 30 min. for HCMV polymerase. Ten μl of streptavidin-SPA beads (20 mg/ml in PBS/10% glycerol) are added following termination of the reaction. Plates are incubated 10 min. at 37° C., then equilibrated to room temperature, and counted on a Packard Topcount.
# In TABLE 1, "MS" refers to mass spectral data, "% inhib" refers to percentage of inhibition at 25 μM concentration in CMV polymerase assay.
# T1 sequence (P08546 whole entry): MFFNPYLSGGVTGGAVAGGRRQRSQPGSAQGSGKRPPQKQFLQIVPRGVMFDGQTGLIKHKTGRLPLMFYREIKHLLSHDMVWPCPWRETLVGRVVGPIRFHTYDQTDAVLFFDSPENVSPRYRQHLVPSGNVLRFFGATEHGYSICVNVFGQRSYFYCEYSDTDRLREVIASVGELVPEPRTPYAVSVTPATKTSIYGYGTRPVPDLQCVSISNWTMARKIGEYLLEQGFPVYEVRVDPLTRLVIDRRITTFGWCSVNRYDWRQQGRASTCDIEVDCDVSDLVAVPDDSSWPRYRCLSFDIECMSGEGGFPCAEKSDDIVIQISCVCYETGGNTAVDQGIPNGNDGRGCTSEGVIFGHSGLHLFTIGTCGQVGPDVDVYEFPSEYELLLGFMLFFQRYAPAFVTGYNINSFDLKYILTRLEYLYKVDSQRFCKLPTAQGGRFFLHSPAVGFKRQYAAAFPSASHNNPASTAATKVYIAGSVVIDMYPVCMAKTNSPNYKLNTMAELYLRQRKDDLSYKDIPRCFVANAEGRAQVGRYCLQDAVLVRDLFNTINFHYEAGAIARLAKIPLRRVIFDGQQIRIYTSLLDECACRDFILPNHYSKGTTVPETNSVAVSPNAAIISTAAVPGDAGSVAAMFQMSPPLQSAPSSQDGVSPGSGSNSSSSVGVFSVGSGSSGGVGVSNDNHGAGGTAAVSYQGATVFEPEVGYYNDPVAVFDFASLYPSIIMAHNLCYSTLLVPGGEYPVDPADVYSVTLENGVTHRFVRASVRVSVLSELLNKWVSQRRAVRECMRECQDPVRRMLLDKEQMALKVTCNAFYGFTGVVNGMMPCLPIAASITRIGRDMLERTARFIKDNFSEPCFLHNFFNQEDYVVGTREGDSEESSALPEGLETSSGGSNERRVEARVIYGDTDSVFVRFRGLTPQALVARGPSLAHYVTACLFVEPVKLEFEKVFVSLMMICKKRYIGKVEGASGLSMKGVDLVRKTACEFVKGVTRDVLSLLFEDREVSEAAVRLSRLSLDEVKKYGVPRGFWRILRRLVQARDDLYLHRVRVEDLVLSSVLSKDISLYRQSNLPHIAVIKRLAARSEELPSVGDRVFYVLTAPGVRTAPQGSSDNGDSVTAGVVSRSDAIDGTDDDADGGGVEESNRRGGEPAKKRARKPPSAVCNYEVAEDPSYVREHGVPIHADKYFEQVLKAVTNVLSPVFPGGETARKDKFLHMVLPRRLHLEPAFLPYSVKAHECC
SMILES,inhibition at 25 µM [%],% Inhib [%]
"NS(=O)(=O)c1ccc(CNc2nnc(NC(=O)/C=C/c3ccccc3)s2)cc1 [compound 32, (E)-N-(5-{[4-(aminosulfonyl)benzyl]amino}-1,3,4-thiadiazol-2-yl)-3-phenyl-2-propenamide]",90.6,
"O=C(Nc1nnc(NCCSc2ccccc2)s1)c1ccc2c(c1)C(=O)OC2=O [compound 33, 1,3-dioxo-N-(5-{[2-(phenylsulfanyl)ethyl]amino}-1,3,4-thiadiazol-2-yl)-1,3-dihydro-2-benzofuran-5-carboxamide]",90.1,
"O=C(/C=C/c1ccccc1Cl)Nc1nnc(NCC2CC2)s1 [compound 34, (E)-3-(2-chlorophenyl)-N-{5-[(cyclopropylmethyl)amino]-1,3,4-thiadiazol-2-yl}-2-propenamide]",89.9,
"CC(C)c1cc(C(C)C)c(C(=O)Nc2nnc(NCc3ccc(S(N)(=O)=O)cc3)s2)c(C(C)C)c1 [compound 35, N-(5-{[4-(aminosulfonyl)benzyl]amino}-1,3,4-thiadiazol-2-yl)-2,4,6-triisopropylbenzamide]",89.7,
"CC(C)c1cc(C(C)C)c(C(=O)Nc2nnc(NCCCNC3CCCCC3)s2)c(C(C)C)c1 [compound 36, N-(5-{[3-(cyclohexylamino)propyl]amino}-1,3,4-thiadiazol-2-yl)-2,4,6-triisopropylbenzamide]",87.6,
"O=C(Nc1nnc(NCCCNC2CCCCC2)s1)c1c(Cl)cccc1Cl [compound 37, 2,6-dichloro-N-(5-{[3-(cyclohexylamino)propyl]amino}-1,3,4-thiadiazol-2-yl)benzamide]",87.4,
"CCCCCCCC/C=C/CCCCCCCC(=O)Nc1nnc(NCC(c2ccccc2)c2ccccc2)s1 [compound 38, (E)-N-{5-[(2,2-diphenylethyl)amino]-1,3,4-thiadiazol-2-yl}-9-octadecenamide]",87.3,
"O=C(Nc1nnc(NCc2cccs2)s1)c1ccc2c(c1)C(=O)OC2=O [compound 39, 1,3-dioxo-N-{5-[(2-thienylmethyl)amino]-1,3,4-thiadiazol-2-yl}-1,3-dihydro-2-benzofuran-5-carboxamide]",87.1,
"O=C(Nc1nnc(NC2CCc3ccccc32)s1)c1ccc2c(c1)C(=O)OC2=O (stereo not shown) [compound 40, N-[5-(2,3-dihydro-1H-inden-1-ylamino)-1,3,4-thiadiazol-2-yl]-1,3-dioxo-1,3-dihydro-2-benzofuran-5-carboxamide]",86.3,
"CCCCCCCC/C=C/CCCCCCCC(=O)Nc1nnc(NCCc2cccs2)s1 [compound 41, (E)-N-(5-{[2-(2-thienyl)ethyl]amino}-1,3,4-thiadiazol-2-yl)-9-octadecenamide]",85.7,
"CCCCCCCC/C=C/CCCCCCCC(=O)Nc1nnc(NCc2cccs2)s1 [compound 42, (E)-N-{5-[(2-thienylmethyl)amino]-1,3,4-thiadiazol-2-yl}-9-octadecenamide]",84.6,
"CCOc1ccc2ccccc2c1C(=O)Nc1nnc(NCc2ccc3c(c2)OCO3)s1 [compound 43, N-{5-[(1,3-benzodioxol-5-ylmethyl)amino]-1,3,4-thiadiazol-2-yl}-2-ethoxy-1-naphthamide]",83.9,
"O=C(Nc1nnc(NCc2cccc3ccccc23)s1)c1ccc([N+](=O)[O-])o1 [compound 44, N-{5-[(1-naphthylmethyl)amino]-1,3,4-thiadiazol-2-yl}-5-nitro-2-furamide]",83.3,
"CCOc1ccc2ccccc2c1C(=O)Nc1nnc(NC2CCN(Cc3ccccc3)CC2)s1 [compound 45, N-{5-[(1-benzyl-4-piperidinyl)amino]-1,3,4-thiadiazol-2-yl}-2-ethoxy-1-naphthamide]",83.1,
"N#Cc1ccc(C(=O)Nc2nnc(NCCC(c3ccccc3)c3ccccc3)s2)cc1 [compound 46, 4-cyano-N-{5-[(3,3-diphenylpropyl)amino]-1,3,4-thiadiazol-2-yl}benzamide]",82.3,
"O=C(Nc1nnc(NCCc2c[nH]c3ccccc23)s1)c1ccc([N+](=O)[O-])o1 [compound 47, N-(5-{[2-(1H-indol-3-yl)ethyl]amino}-1,3,4-thiadiazol-2-yl)-5-nitro-2-furamide]",81.6,
"CCCCCCCC/C=C/CCCCCCCC(=O)Nc1nnc(NCc2ccc(F)cc2)s1 [compound 48, (E)-N-{5-[(4-fluorobenzyl)amino]-1,3,4-thiadiazol-2-yl}-9-octadecenamide]",81.5,

SMILES,inhibition at 25 µM [%],% Inhib [%]
"CCCCCCCCCCCNc1nnc(NC(=O)c2ccc(S(=O)(=O)F)cc2)s1 [compound 49, 4-({[5-(undecylamino)-1,3,4-thiadiazol-2-yl]amino}carbonyl)benzenesulfonyl fluoride]",,80.3
"NS(=O)(=O)c1ccc(CCNc2nnc(NC(=O)/C=C/c3ccccc3)s2)cc1 [compound 50, (E)-N-(5-{[4-(aminosulfonyl)phenethyl]amino}-1,3,4-thiadiazol-2-yl)-3-phenyl-2-propenamide]",79.8,
"CCCCCCCC/C=C/CCCCCCCC(=O)Nc1nnc(NCCCCCCCCCCC)s1 [compound 51, (E)-N-[5-(undecylamino)-1,3,4-thiadiazol-2-yl]-9-octadecenamide]",79.5,
"O=C(Nc1nnc(NCCCCc2ccccc2)s1)c1cc2ccccc2s1 [compound 52, N-{5-[(4-phenylbutyl)amino]-1,3,4-thiadiazol-2-yl}-1-benzothiophen-2-carboxamide]",78.7,
"CCCCCCCC/C=C/CCCCCCCC(=O)Nc1nnc(NCc2ccc3c(c2)OCO3)s1 [compound 53, (E)-N-{5-[(1,3-benzodioxol-5-ylmethyl)amino]-1,3,4-thiadiazol-2-yl}-9-octadecenamide]",77.9,
"O=C(Nc1nnc(NCc2ccncc2)s1)c1ccc2c(c1)C(=O)OC2=O [compound 54, 1,3-dioxo-N-{5-[(4-pyridinylmethyl)amino]-1,3,4-thiadiazol-2-yl}-1,3-dihydro-2-benzofuran-5-carboxamide]",77.7,
"CCOc1ccc2ccccc2c1C(=O)Nc1nnc(NCC(c2ccccc2)c2ccccc2)s1 [compound 55, N-{5-[(2,2-diphenylethyl)amino]-1,3,4-thiadiazol-2-yl}-2-ethoxy-1-naphthamide]",77.6,
"O=C(Nc1nnc(NCC(c2ccccc2)c2ccccc2)s1)c1c(Cl)cccc1Cl [compound 56, 2,6-dichloro-N-{5-[(2,2-diphenylethyl)amino]-1,3,4-thiadiazol-2-yl}benzamide]",77.4,
"NS(=O)(=O)c1ccc(CNc2nnc(NC(=O)c3ccc(I)cc3)s2)cc1 [compound 57, N-(5-{[4-(aminosulfonyl)benzyl]amino}-1,3,4-thiadiazol-2-yl)-4-iodobenzamide]",76.3,
"CCCCCCCC/C=C/CCCCCCCC(=O)Nc1nnc(NCCSc2ccccc2)s1 [compound 58, (E)-N-(5-{[2-(phenylsulfanyl)ethyl]amino}-1,3,4-thiadiazol-2-yl)-9-octadecenamide]",75.8,
"O=C(Nc1nnc(NCCCCc2ccccc2)s1)c1ccc(I)cc1 [compound 59, 4-iodo-N-{5-[(4-phenylbutyl)amino]-1,3,4-thiadiazol-2-yl}benzamide]",74.6,
"CCCCCCCCCCCNc1nnc(NC(=O)c2ccc([N+](=O)[O-])o2)s1 [compound 60, 5-nitro-N-[5-(undecylamino)-1,3,4-thiadiazol-2-yl]-2-furamide]",74.5,
"CCOc1ccc2ccccc2c1C(=O)Nc1nnc(NCCC(c2ccccc2)c2ccccc2)s1 [compound 61, N-{5-[(3,3-diphenylpropyl)amino]-1,3,4-thiadiazol-2-yl}-2-ethoxy-1-naphthamide]",74.2,
"O=C(Nc1nnc(NCCCNC2CCCCC2)s1)c1cc2ccccc2s1 [compound 62, N-(5-{[3-(cyclohexylamino)propyl]amino}-1,3,4-thiadiazol-2-yl)-1-benzothiophene-2-carboxamide]",74,
"O=C(Nc1nnc(NCCC(c2ccccc2)c2ccccc2)s1)c1c(Cl)cccc1Cl [compound 63, 2,6-dichloro-N-{5-[(3,3-diphenylpropyl)amino]1,3,4-thiadiazol-2-yl}benzamide]",73.8,
"CCCCCCCC/C=C/CCCCCCCC(=O)Nc1nnc(NCCC(c2ccccc2)c2ccccc2)s1 [compound 64, (E)-N-{5-[(3,3-diphenylpropyl)amino]-1,3,4-thiadiazol-2-yl}-9-octadecenamide]",73.6,
"CCCCCCCCCCCNc1nnc(NC(=O)c2ccc(C#N)cc2)s1 [compound 65, 4-cyano-N-[5-(undecylamino)-1,3,4-thiadiazol-2-yl]benzamide]",72.2,
